Tests used:
Assay in all cases: relative viability (nuclei count vs DMSO), 5 days (fraction); higher = more cells survive
[1] = compound: OCc1c[nH]c2ccccc12 [Indole-3-carbinol] + CC(C)C[C@H](NC(=O)[C@H](Cc1ccccc1)NC(=O)c1cnccn1)B(O)O [Bortezomib] (partner 0.002 µM)
Procedure, shortened: (§1)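 One day after seeding in 1536-well plates, lung cancer cell lines were dosed by pin tool. Dosing was either single-drug or a fixed anchor-drug dose plus five library-drug doses (not always all listed) in √10 steps. After 5 days, nuclei were stained in one fix-and-stain step and counted on 4× images, and relative viability is the nuclei count of treated wells over that of vehicle wells, given as the median of duplicate plates.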

[2] = compound: OCc1c[nH]c2ccccc12 [Indole-3-carbinol] + N=C(N)NC(=N)NCCc1ccccc1 [Phenformin] (partner 250 µM)
Procedure, shortened: as §1

[3] = compound: OCc1c[nH]c2ccccc12 [Indole-3-carbinol] + Nc1nc2[nH]cc(CCc3ccc(C(=O)N[C@@H](CCC(=O)O)C(=O)O)cc3)c2c(=O)[nH]1 [Pemetrexed] (partner 0.2 µM)
Procedure, shortened: as §1

[4] = compound: OCc1c[nH]c2ccccc12 [Indole-3-carbinol] + C[C@]1(O)C[C@@H](c2nc(-c3ccc4ccc(-c5ccccc5)nc4c3)c3c(N)nccn32)C1 [Linsitinib] (partner 1 µM)
Procedure, shortened: as §1

[5] = compound: OCc1c[nH]c2ccccc12 [Indole-3-carbinol] + Cc1cc(Nc2cc(N3CCN(C)CC3)nc(Sc3ccc(NC(=O)C4CC4)cc3)n2)n[nH]1 [Tozasertib] (partner 0.1 µM)
Procedure, shortened: as §1

| Cell Line | relative viability ([1]; first compound 0.253 µM) | relative viability ([1]; first compound 0.8 µM) | relative viability ([1]; first compound 2.53 µM) | relative viability ([1]; first compound 8 µM) | relative viability ([2]; first compound 0.253 µM) | relative viability ([2]; first compound 0.8 µM) | relative viability ([2]; first compound 2.53 µM) | relative viability ([2]; first compound 8 µM) | relative viability ([3]; first compound 0.253 µM) | relative viability ([3]; first compound 0.8 µM) | relative viability ([3]; first compound 2.53 µM) | relative viability ([3]; first compound 8 µM) | relative viability ([4]; first compound 0.253 µM) | relative viability ([4]; first compound 0.8 µM) | relative viability ([4]; first compound 2.53 µM) | relative viability ([4]; first compound 8 µM) | relative viability ([5]; first compound 0.253 µM) | relative viability ([5]; first compound 0.8 µM) | relative viability ([5]; first compound 2.53 µM) | relative viability ([5]; first compound 8 µM) |
| --- | --- | --- | --- | --- | --- | --- | --- | --- | --- | --- | --- | --- | --- | --- | --- | --- | --- | --- | --- | --- |
| EMC-BAC-2 | 0.994 | 1.01 | 1.08 | 1.02 | 0.528 | 0.536 | 0.489 | 0.413 | 0.393 | 0.441 | 0.439 | 0.448 | 0.827 | 0.823 | 0.806 | 0.771 | 0.267 | 0.309 | 0.25 | 0.259 |
| NCI-H661 | 0.94 | 0.602 | 0.748 | 0.746 | 0.281 | 0.253 | 0.272 | 0.266 | 0.898 | 0.891 | 0.945 | 0.891 | 0.542 | 0.378 | 0.623 | 0.676 | 0.335 | 0.334 | 0.359 | 0.348 |
| LU99A | 1.31 | 1.11 | 1.06 | 1.02 | 0.943 | 0.869 | 0.816 | 0.871 | 0.169 | 0.163 | 0.187 | 0.175 | 0.501 | 0.556 | 0.428 | 0.536 | 0.224 | 0.317 | 0.315 | 0.257 |
| LK-2 |  |  |  |  | 0.245 | 0.381 | 0.606 | 0.563 | 0.273 | 0.216 | 0.313 | 0.358 | 0.627 | 0.572 | 0.47 | 0.536 | 0.162 | 0.167 | 0.194 | 0.17 |
| NCI-H3122 | 1.01 | 1.04 | 1.07 | 1.04 | 0.391 | 0.364 | 0.413 | 0.381 | 0.195 | 0.21 | 0.203 | 0.203 | 1.02 | 1.03 | 1.07 | 1.04 | 0.398 | 0.383 | 0.483 | 0.372 |
| NCI-H2347 | 1.2 |  | 0.926 | 0.868 | 0.405 | 0.34 | 0.496 | 0.435 | 0.425 | 0.415 | 0.437 | 0.41 | 0.986 | 1.06 | 1.04 | 0.793 | 0.614 | 0.54 | 0.571 | 0.538 |
| NCI-H1563 | 0.951 | 0.7 | 0.996 | 0.774 | 0.657 | 0.652 | 0.636 | 0.644 | 0.767 | 0.645 | 0.809 | 0.802 | 1.24 | 1.27 | 1.23 | 1.08 |  |  |  |  |
| HCC-827 | 0.873 | 0.986 | 1.03 | 0.986 | 0.389 | 0.383 | 0.417 | 0.364 | 0.261 | 0.258 | 0.278 | 0.255 | 1.04 | 1.01 | 0.962 | 0.942 | 0.4 | 0.398 | 0.429 | 0.383 |
| NCI-H1666 | 0.892 | 0.873 | 0.865 | 0.786 | 0.592 | 0.515 | 0.582 | 0.558 | 0.882 | 0.852 | 0.878 | 0.826 | 0.81 | 0.867 | 0.84 | 0.808 | 0.556 | 0.638 | 0.526 | 0.657 |
| NCI-H358 |  |  |  |  | 0.383 | 0.33 | 0.345 | 0.325 | 0.17 | 0.161 | 0.182 | 0.185 | 0.697 | 0.7 | 0.734 | 0.709 | 0.097 | 0.131 | 0.113 | 0.0974 |
| 201T | 1.17 | 0.996 | 1.11 | 1.1 | 0.42 | 0.478 | 0.505 | 0.446 | 0.345 | 0.354 | 0.362 | 0.322 | 1.03 | 0.975 | 1.1 | 1.05 | 0.958 | 0.978 | 1.02 | 0.969 |
| PC-3 [JPC-3] | 0.851 | 0.89 | 0.863 | 0.741 | 0.477 | 0.483 | 0.483 | 0.473 | 1.17 | 1.16 | 0.958 | 1.15 | 0.948 | 0.985 | 0.922 | 0.887 | 0.873 | 0.981 | 0.879 | 0.866 |
| NCI-H2405 | 0.985 | 0.983 | 1 | 0.963 | 0.426 | 0.376 | 0.391 | 0.44 | 1.15 | 1.04 | 0.972 | 1.03 | 0.945 | 0.805 | 0.903 | 0.89 | 0.751 | 0.806 | 0.758 | 0.776 |
| LXF-289 | 1.03 | 1.1 | 0.944 | 0.893 | 0.527 | 0.553 | 0.488 | 0.513 | 0.944 | 1.02 | 0.934 | 0.851 | 0.977 | 1.03 | 0.996 | 0.892 | 0.228 | 0.21 | 0.289 | 0.199 |
| EKVX | 1.24 | 1.1 | 1.12 | 1.04 | 0.232 | 0.223 | 0.227 | 0.234 | 0.4 | 0.46 | 0.413 | 0.452 | 1.03 | 1.03 | 0.973 | 0.976 | 0.423 | 0.428 | 0.421 | 0.383 |
| A-427 | 0.937 | 0.992 | 1.03 | 0.886 | 0.35 | 0.351 | 0.339 | 0.298 | 0.997 | 1.03 | 0.926 | 0.946 | 1.1 | 1.06 | 1.09 | 1.08 | 0.193 | 0.226 | 0.226 | 0.224 |
| IA-LM | 0.842 | 0.898 | 0.82 | 0.789 |  |  |  |  |  |  |  |  | 0.674 | 0.593 | 0.637 | 0.444 |  |  |  |  |

— the supplement of paper PMC10307832
